# Laboratory results as given in ChEMBL document CHEMBL3580592, “Combretastatin A-4 inspired novel 2-aryl-3-arylamino-imidazo-pyridines/pyrazines as tubulin polymerization inhibitors, antimitotic and anticancer agents” (Medchemcomm, 2014).
# Activity calls are given as the source filed them. The rule behind the calls is not given here.
# Tests used:
# Tubulin = assay: Inhibition of tubulin polymerization in HEK293T cell lysate after 15 mins by spectrophotometry; assay type: cell-free, Homo sapiens; settings: hek-293t
# Tubulin (Homo sapiens) = Tubulin (Homo sapiens) (UniProt P68371+Q9H4B7+P0DPH7+P68366+Q13509+Q71U36+P04350+Q3ZCM7+P07437+P68363+Q9BQE3+Q6PEY2+Q13885+Q9BVA1+Q9BUF5); assay: Inhibition of tubulin assembly in HEK293T cells assessed as formation of abnormal mitotic spindles at LC50 after 24 hrs by immunofluorescence based confocal microscopy; assay type: cell-based; settings: HEK-293T
# [1] = Cytotoxicity against African green monkey Vero cells assessed as cell death by MTT assay; assay type: cell-based; settings: chlorocebus sabaeus, read-out: LC50 (the source's name)
# HEK-293T [2] = assay: Cytotoxicity against human HEK293T cells assessed as cell death by MTT assay; assay type: functional; settings: read-out: LC50 (the source's name)
# SiHa [3] = assay: Cytotoxicity against human SiHa cells assessed as cell death after 24 hrs by MTT assay; assay type: functional; settings: read-out: LC50 (the source's name)
# SiHa [4] = assay: Cytotoxicity against human SiHa cells assessed as cell death after 48 hrs by MTT assay; assay type: functional; settings: read-out: LC50 (the source's name)
# MCF7 [5] = assay: Cytotoxicity against human MCF7 cells assessed as cell death after 24 hrs by MTT assay; assay type: functional; settings: MCF7, 24 h, read-out: LC50 (the source's name)
# MCF7 [6] = assay: Cytotoxicity against human MCF7 cells assessed as cell death after 48 hrs by MTT assay; assay type: functional; settings: MCF7, 48 h, read-out: LC50 (the source's name)
# HEK-293T [7] = assay: Cytotoxicity against human HEK293T cells assessed as cell death after 24 hrs by MTT assay; assay type: functional; settings: read-out: LC50 (the source's name)
# HEK-293T [8] = assay: Cytotoxicity against human HEK293T cells assessed as cell death after 48 hrs by MTT assay; assay type: functional; settings: read-out: LC50 (the source's name)
# HeLa [9] = assay: Cytotoxicity against human HeLa cells assessed as cell death after 24 hrs by MTT assay; assay type: functional; settings: read-out: LC50 (the source's name)
# HeLa [10] = assay: Cytotoxicity against human HeLa cells assessed as cell death after 48 hrs by MTT assay; assay type: functional; settings: read-out: LC50 (the source's name)
# HEK-293T [11] = assay: Cytotoxicity against human HEK293T cells assessed as inhibition of colony formation at LC50 after 24 hrs by crystal violet staining based clonogenic cell survival assay; assay type: functional
# HEK293 = assay: Inhibition of anchorage-dependent HEK293T cell migration at LC50 after 6 to 24 hrs by wound healing assay; assay type: functional, cell-based; settings: Homo sapiens
# HEK-293T [12] = assay: Induction of cell cycle arrest in HEK293T cells assessed as cells accumulation at G2/M phase at LC50 after 24 hrs by PI staining-based FACS scan flow cytometry (reference value: 22.2 +/- 1.5%); assay type: functional, Homo sapiens
# HEK-293T [13] = assay: Induction of apoptosis in HEK293T cells assessed as chromatin condensation and nuclear fragmentation at LC50 after 24 hrs by DAPI staining-based fluorescent microscopy; assay type: functional, cell-based; settings: Homo sapiens
# HEK-293T [14] = assay: Induction of apoptosis in HEK293T cells assessed as apoptotic nuclei at LC50 after 24 hrs by DAPI staining-based fluorescent microscopy; assay type: functional, cell-based; settings: Homo sapiens
# HEK-293T [15] = assay: Induction of apoptosis in HEK293T cells assessed as increase in p53 expression at LC50 after 24 hrs by Western blot analysis; assay type: functional, cell-based; settings: Homo sapiens
# HEK-293T [16] = assay: Induction of apoptosis in HEK293T cells assessed as reduction in PARP level at LC50 after 24 hrs by Western blot analysis; assay type: functional, cell-based; settings: Homo sapiens
# HEK-293T [17] = assay: Induction of apoptosis in HEK293T cells assessed as activation of caspase 3 at LC50 after 24 hrs by immunocytochemical analysis; assay type: functional, cell-based; settings: Homo sapiens
# HEK-293T [18] = assay: Induction of DNA damage in HEK293T cells assessed as increase in comet length at LC50 after 24 hrs by Comet assay relative to untreated control; assay type: functional, cell-based; settings: Homo sapiens
# HEK-293T [19] = assay: Induction of chromosomal damage in HEK293T cells assessed as micronuclei formation at LC50 after 24 hrs by cytokinesis-block micronucleus assay relative to untreated control; assay type: functional, cell-based; settings: Homo sapiens
smiles,measurement,setting,value
COc1ccc(-c2nc3ccccn3c2Nc2cc(OC)c(OC)c(OC)c2)cc1O,IC50,Tubulin,12 µM
same,inhibition,Tubulin (Homo sapiens),Active
same,CC50,[1],50 µM
same,CC50,HEK-293T [2],10 µM
same,CC50,SiHa [3],5 µM
same,CC50,SiHa [4],2 µM
same,CC50,MCF7 [5],20 µM
same,CC50,MCF7 [6],12 µM
same,CC50,HEK-293T [7],10 µM
same,CC50,HEK-293T [8],5 µM
same,CC50,HeLa [9],15 µM
same,CC50,HeLa [10],10 µM
same,inhibition,HEK-293T [11],Active
same,inhibition,HEK293,Active
same,Activity,HEK-293T [12],33.6%
same,Activity,HEK-293T [13],Active
same,Activity,HEK-293T [14],Active
same,Activity,HEK-293T [15],Active
same,Activity,HEK-293T [16],Active
same,Activity,HEK-293T [17],Active
same,Activity,HEK-293T [18],Active
same,Activity,HEK-293T [19],Active
COc1ccc(-c2nc3sccn3c2Nc2cc(OC)c(OC)c(OC)c2)cc1O,IC50,Tubulin,36 µM
same,CC50,[1],62 µM
same,CC50,HEK-293T [2],36 µM
COc1cc(Nc2c(-c3ccc(F)cc3)nc3cnccn23)cc(OC)c1OC,IC50,Tubulin,36 µM
same,CC50,[1],48 µM
same,CC50,HEK-293T [2],36 µM
COc1ccc(-c2nc3cnccn3c2Nc2cc(OC)c(OC)c(OC)c2)cc1,IC50,Tubulin,40 µM
same,CC50,[1],75 µM
same,CC50,HEK-293T [2],54 µM
COc1cc(-c2nc3cnccn3c2Nc2cc(OC)c(OC)c(OC)c2)cc(OC)c1O,IC50,Tubulin,34 µM
same,CC50,[1],62 µM
same,CC50,HEK-293T [2],34 µM
COc1cc(Nc2c(C3C=Nc4ccccc43)nc3cnccn23)cc(OC)c1OC (stereo not drawn),IC50,Tubulin,11 µM
same,inhibition,Tubulin (Homo sapiens),Active
same,CC50,[1],70 µM
same,CC50,HEK-293T [2],12 µM
same,CC50,SiHa [3],7 µM
same,CC50,SiHa [4],3 µM
same,CC50,MCF7 [5],18 µM
same,CC50,MCF7 [6],6 µM
same,CC50,HEK-293T [7],12 µM
same,CC50,HEK-293T [8],3 µM
same,CC50,HeLa [9],17 µM
same,CC50,HeLa [10],9 µM
same,inhibition,HEK-293T [11],Active
same,inhibition,HEK293,Active
same,Activity,HEK-293T [12],87.4%
same,Activity,HEK-293T [13],Active
same,Activity,HEK-293T [14],Active
same,Activity,HEK-293T [15],Active
same,Activity,HEK-293T [16],Active
same,Activity,HEK-293T [17],Active
same,Activity,HEK-293T [18],Active
same,Activity,HEK-293T [19],Active
COc1ccc(Nc2c(-c3cccc(O)c3)nc3ccccn23)cc1,IC50,Tubulin,42 µM
same,CC50,[1],74 µM
same,CC50,HEK-293T [2],47 µM
COc1ccc(-c2nc3sc4ccccc4n3c2Nc2cc(OC)c(OC)c(OC)c2)cc1O,IC50,Tubulin,20 µM
same,CC50,[1],26 µM
same,CC50,HEK-293T [2],22 µM
COc1ccc(Nc2c(-c3ccc(OC)cc3)nc3ccccn23)cc1,IC50,Tubulin,34 µM
same,CC50,[1],54 µM
same,CC50,HEK-293T [2],34 µM
COc1cc(Nc2c(-c3cccc(O)c3)nc3cnccn23)cc(OC)c1OC,IC50,Tubulin,39 µM
same,CC50,[1],63 µM
same,CC50,HEK-293T [2],42 µM
COc1ccc(Nc2c(-c3cccc(B(O)O)c3)nc3ccccn23)cc1,IC50,Tubulin,48 µM
same,CC50,[1],58 µM
same,CC50,HEK-293T [2],48 µM
COc1ccc(-c2nc3cc(C)ccn3c2Nc2cc(OC)c(OC)c(OC)c2)cc1O,IC50,Tubulin,10 µM
same,inhibition,Tubulin (Homo sapiens),Active
same,CC50,[1],48 µM
same,CC50,HEK-293T [2],8 µM
same,CC50,SiHa [3],4 µM
same,CC50,SiHa [4],1.5 µM
same,CC50,MCF7 [5],15 µM
same,CC50,MCF7 [6],10 µM
same,CC50,HEK-293T [7],8 µM
same,CC50,HEK-293T [8],3 µM
same,CC50,HeLa [9],15 µM
same,CC50,HeLa [10],7 µM
same,inhibition,HEK-293T [11],Active
same,inhibition,HEK293,Active
same,Activity,HEK-293T [12],36.6%
same,Activity,HEK-293T [13],Active
same,Activity,HEK-293T [14],Active
same,Activity,HEK-293T [15],Active
same,Activity,HEK-293T [16],Active
same,Activity,HEK-293T [17],Active
same,Activity,HEK-293T [18],Active
same,Activity,HEK-293T [19],Active
COc1ccc(Nc2c(-c3ccc(OC)c(O)c3)nc3cnccn23)cc1,IC50,Tubulin,38 µM
same,CC50,[1],62 µM
same,CC50,HEK-293T [2],38 µM
COc1ccc(-c2nc3cnccn3c2Nc2cc(OC)c(OC)c(OC)c2)cc1O,IC50,Tubulin,38 µM
same,CC50,[1],50 µM
same,CC50,HEK-293T [2],38 µM
COc1ccc(/C=C\c2cc(OC)c(OC)c(OC)c2)cc1O [COMBRETASTATIN A4],CC50,[1],11 µM
same,CC50,HEK-293T [2],8 µM
same,CC50,SiHa [3],0.6 µM
same,CC50,SiHa [4],0.2 µM
same,CC50,MCF7 [5],7 µM
same,CC50,MCF7 [6],2 µM
same,CC50,HEK-293T [7],8 µM
same,CC50,HEK-293T [8],0.2 µM
same,CC50,HeLa [9],6 µM
same,CC50,HeLa [10],0.8 µM
same,Activity,HEK-293T [13],Active
same,Activity,HEK-293T [14],Active
same,Activity,HEK-293T [15],Active
same,Activity,HEK-293T [16],Active
same,Activity,HEK-293T [17],Active
same,Activity,HEK-293T [18],Active
same,Activity,HEK-293T [19],Active
COc1ccc(Nc2c(-c3ccc(F)cc3)nc3cnccn23)cc1,IC50,Tubulin,44 µM
same,CC50,[1],72 µM
same,CC50,HEK-293T [2],56 µM
COc1cc(Nc2c(-c3ccc(Cl)cc3)nc3cnccn23)cc(OC)c1OC,IC50,Tubulin,32 µM
same,CC50,[1],32 µM
same,CC50,HEK-293T [2],25 µM
COc1ccc(Nc2c(-c3ccc(OC)c(O)c3)nc3ncccn23)cc1,IC50,Tubulin,54 µM
same,CC50,[1],56 µM
same,CC50,HEK-293T [2],54 µM
COc1ccc(Nc2c(-c3cc(OC)c(OC)c(OC)c3)nc3ccccn23)cc1,IC50,Tubulin,14 µM
same,inhibition,Tubulin (Homo sapiens),Active
same,CC50,[1],65 µM
same,CC50,HEK-293T [2],10 µM
same,CC50,SiHa [3],5 µM
same,CC50,SiHa [4],2 µM
same,CC50,MCF7 [5],8 µM
same,CC50,MCF7 [6],5 µM
same,CC50,HEK-293T [7],10 µM
same,CC50,HEK-293T [8],5 µM
same,CC50,HeLa [9],9 µM
same,CC50,HeLa [10],5 µM
same,inhibition,HEK-293T [11],Active
same,inhibition,HEK293,Active
same,Activity,HEK-293T [12],40.7%
same,Activity,HEK-293T [13],Active
same,Activity,HEK-293T [14],Active
same,Activity,HEK-293T [15],Active
same,Activity,HEK-293T [16],Active
same,Activity,HEK-293T [17],Active
same,Activity,HEK-293T [18],Active
same,Activity,HEK-293T [19],Active
COc1ccc(-c2nc3cccc(C)n3c2Nc2cc(OC)c(OC)c(OC)c2)cc1O,IC50,Tubulin,38 µM
same,CC50,[1],74 µM
same,CC50,HEK-293T [2],63 µM
COc1ccc(Nc2c(-c3ccc(Cl)cc3)nc3cnccn23)cc1,IC50,Tubulin,46 µM
same,CC50,[1],45 µM
same,CC50,HEK-293T [2],34 µM
